Article PMC6886544

Columns and labels:
[1] = target: T1, EGFR-wt (Homo sapiens, UniProt P00533); test: Kinetic characterization (Ki, kinact), EGFR-wt
[2] = target: EGFR-L858R/T790M (Homo sapiens, UniProt P00533, L858R/T790M); test: Kinetic characterization (Ki, kinact), EGFR-L858R/T790M
[3] = Plasma protein binding, mouse; format: in vitro ADME; details: equilibrium dialysis, 37 °C
Method: Assessment of plasma protein binding was measured by equilibrium dialysis by incubating plasma
based determination of final compound concentrations. […]

[4] = In vivo pharmacokinetics in mice
Method: In vivo pharmacokinetics.
To determine the pharmacokinetics of 19h, totally 36 male RjOrl:SWISS (CD1) mice, age 8−10 weeks, body weight (bw) between 29 and 31 g, were purchased from Janvier, Saint-Berthevin Cedex, France. Mice were fed ad libitum with Allein-Futter für Ratten-/Mäusehaltung from Sniff Special Diets GmbH, Germany. They had free access to water and were kept in a 12 h day/night rhythm. All experiments were approved by the local authorities. Pharmacokinetics were studied for the oral (PO), intraperitoneal (IP), and intravenous (IV) route of administration. For the oral and […]
intraperitoneal routes, a stock solution of 2 mg/mL of 19h in a solution consisting of 10% of DMSO and to 90% of an aqueous solution of 30% 2-hydroxypropyl-β-cyclodextrin was prepared. To reach doses of 20 mg/kg bw, 300 μL were administered per 30 g of mouse bw. For the intravenous route of administration, a 2 mg/mL DMSO solution was prepared and 30 μL were applied to a 30 g mouse to reach a concentration of 2 mg/kg bw. Mice were sacrificed 5, 15, 45, and 135 min after administration of the test compound, and approximately 100 μL of blood was taken from the left heart chamber. Three mice were analyzed per time point and route of administration (PO, IP and IV), respectively. Immediately after sampling, blood was centrifuged at 16200g for 10 min at 4 °C and plasma was stored at -80 °C until LC/MS analysis of 19h. Prior to LC-MS/MS analysis, plasma proteins were precipitated with acetonitrile containing an internal standard, and samples were filtered. A calibration curve was obtained from spiked blank plasma samples. 19h was measured using a Shimadzu UPLC system connected to a QTrap 4000 hybrid triple quadrupole/linear ion trap mass spectrometer (AB Sciex). The regression equation of the calibration curve was used to calculate plasma concentrations. Pharmacokinetic parameters were calculated using the PKSolver software2.

[5] = Microsomal stability (phase I), human; format: in vitro ADME; details: human liver microsomes, up to 50 minutes, 37 °C
Method: Microsomal stability (phase I) assay.
Metabolic stability under oxidative conditions was measured in liver microsomes from different
time up to 50 minutes (HLM) or 60 minutes (MLM) at 37 °C. Based on the compound half-life t1/2,
the in vitro intrinsic clearance CLint was calculated. […]

[6] = target: JAK3 (Homo sapiens, UniProt P52333); test: SelectScreen kinase profiling, JAK3; format: biochemical; details: mean ± SD of one measurement in duplicates
Method: (§1) Kinase profiling of compound 17a at a concentration of 1 µM generated with the SelectScreen® Profiling Service from Life Technologies.
(§2) Figure S2. Kinase profiling of compound 17a, Illustration as waterfall plot. 9 Kinases harboring a Cysteine isostructural to Cys797 in EGFR are highlighted
(§3) Kinase % inhibition Kinase % inhibition […]
(§4) aValues are the mean ± SD of one measurement in duplicates; bKinases harboring a Cysteine isostructural to Cys797 […]
(§5) (1 picture or pasted object on this page, not shown here)

[7] = target: ABL1-wt (Homo sapiens, UniProt P00519); test: SelectScreen kinase profiling, ABL1-wt; format: biochemical; details: mean ± SD of one measurement in duplicates
Method: as §1, §2, §3, §4, §5

[8] = target: BMX (Homo sapiens, UniProt P51813); test: SelectScreen kinase profiling, BMX; format: biochemical; details: mean ± SD of one measurement in duplicates
Chain of BMX (P51813 whole entry): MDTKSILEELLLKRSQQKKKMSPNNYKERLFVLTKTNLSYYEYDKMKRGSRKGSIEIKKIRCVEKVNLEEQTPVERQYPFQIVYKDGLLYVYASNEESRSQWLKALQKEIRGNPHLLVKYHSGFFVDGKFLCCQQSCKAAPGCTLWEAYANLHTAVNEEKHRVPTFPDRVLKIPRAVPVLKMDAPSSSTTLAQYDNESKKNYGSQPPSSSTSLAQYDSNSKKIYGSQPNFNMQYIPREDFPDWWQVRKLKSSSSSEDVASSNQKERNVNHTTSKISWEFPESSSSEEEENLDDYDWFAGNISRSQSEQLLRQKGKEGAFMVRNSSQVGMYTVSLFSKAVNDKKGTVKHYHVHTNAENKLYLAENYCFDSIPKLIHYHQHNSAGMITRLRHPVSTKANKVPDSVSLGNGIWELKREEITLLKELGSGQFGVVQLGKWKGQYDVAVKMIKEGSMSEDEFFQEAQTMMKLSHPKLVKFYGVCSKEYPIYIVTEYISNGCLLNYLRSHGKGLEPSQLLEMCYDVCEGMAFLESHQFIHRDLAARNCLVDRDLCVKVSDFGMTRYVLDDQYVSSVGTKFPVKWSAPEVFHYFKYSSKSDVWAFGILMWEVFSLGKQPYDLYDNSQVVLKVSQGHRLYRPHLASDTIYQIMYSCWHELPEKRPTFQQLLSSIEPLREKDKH
Method: as §1, §2, §3, §4, §5

[9] = target: SRC-N1 (Homo sapiens, UniProt P12931); test: SelectScreen kinase profiling, SRC-N1; format: biochemical; details: mean ± SD of one measurement in duplicates
Method: as §1, §2, §3, §4, §5

[10] = target: FGFR2 (Homo sapiens, UniProt P21802); test: SelectScreen kinase profiling, FGFR2; format: biochemical; details: mean ± SD of one measurement in duplicates
Chain of FGFR2 (P21802 22-821): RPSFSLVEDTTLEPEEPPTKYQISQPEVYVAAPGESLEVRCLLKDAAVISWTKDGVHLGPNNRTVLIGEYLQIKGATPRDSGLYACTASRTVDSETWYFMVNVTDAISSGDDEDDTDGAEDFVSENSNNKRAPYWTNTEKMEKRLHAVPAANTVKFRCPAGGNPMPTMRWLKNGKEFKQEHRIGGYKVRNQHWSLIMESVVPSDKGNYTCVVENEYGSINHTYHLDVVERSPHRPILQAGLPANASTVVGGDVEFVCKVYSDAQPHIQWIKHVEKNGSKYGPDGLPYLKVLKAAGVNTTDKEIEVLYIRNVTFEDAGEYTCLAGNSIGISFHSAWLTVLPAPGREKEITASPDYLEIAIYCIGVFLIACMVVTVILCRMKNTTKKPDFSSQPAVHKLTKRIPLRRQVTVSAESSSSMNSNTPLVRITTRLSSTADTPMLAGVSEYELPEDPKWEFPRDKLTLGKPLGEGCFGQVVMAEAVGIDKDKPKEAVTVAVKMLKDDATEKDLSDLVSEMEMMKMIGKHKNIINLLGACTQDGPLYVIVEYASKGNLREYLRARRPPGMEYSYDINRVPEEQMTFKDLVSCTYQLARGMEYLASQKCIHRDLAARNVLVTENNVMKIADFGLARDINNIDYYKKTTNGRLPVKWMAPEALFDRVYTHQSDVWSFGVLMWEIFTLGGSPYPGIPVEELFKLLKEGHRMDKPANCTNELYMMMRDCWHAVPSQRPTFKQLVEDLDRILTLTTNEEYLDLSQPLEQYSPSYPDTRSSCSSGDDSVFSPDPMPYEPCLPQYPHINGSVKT
Method: as §1, §2, §3, §4, §5

[11] = target: EPHB2 (Homo sapiens, UniProt P29323); test: SelectScreen kinase profiling, EPHB2; format: biochemical; details: mean ± SD of one measurement in duplicates
Method: as §1, §2, §3, §4, §5

[12] = target: ABL1-G250E (Homo sapiens, UniProt P00519, G250E); test: SelectScreen kinase profiling, ABL1-G250E; format: biochemical; details: mean ± SD of one measurement in duplicates
Method: as §1, §2, §3, §4, §5

[13] = target: ROS1 (Homo sapiens, UniProt P08922); test: SelectScreen kinase profiling, ROS1; format: biochemical; details: mean ± SD of one measurement in duplicates
Method: as §1, §2, §3, §4, §5

[14] = target: EGFR-L861Q (Homo sapiens, UniProt P00533, L861Q); test: SelectScreen kinase profiling, EGFR-L861Q; format: biochemical; details: mean ± SD of one measurement in duplicates
Chain of EGFR-L861Q (P00533 668-1210 L861Q limits assumed): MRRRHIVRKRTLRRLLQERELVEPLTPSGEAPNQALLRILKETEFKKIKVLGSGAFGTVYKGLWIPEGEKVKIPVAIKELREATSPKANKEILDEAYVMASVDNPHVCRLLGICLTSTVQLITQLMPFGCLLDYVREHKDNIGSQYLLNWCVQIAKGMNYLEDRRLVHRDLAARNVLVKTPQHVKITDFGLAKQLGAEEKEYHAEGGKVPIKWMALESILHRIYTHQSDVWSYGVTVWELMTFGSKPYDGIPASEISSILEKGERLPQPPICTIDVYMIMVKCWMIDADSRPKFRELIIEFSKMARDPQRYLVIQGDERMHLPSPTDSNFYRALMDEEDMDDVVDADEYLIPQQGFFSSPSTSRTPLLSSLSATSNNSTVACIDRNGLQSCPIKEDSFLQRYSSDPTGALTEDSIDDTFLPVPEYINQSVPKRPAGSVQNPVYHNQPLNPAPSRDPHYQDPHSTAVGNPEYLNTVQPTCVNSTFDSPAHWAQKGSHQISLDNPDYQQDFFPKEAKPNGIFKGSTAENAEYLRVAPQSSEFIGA
Method: as §1, §2, §3, §4, §5

[15] = target: SRC (Homo sapiens, UniProt P12931); test: SelectScreen kinase profiling, SRC; format: biochemical; details: mean ± SD of one measurement in duplicates
Chain of SRC (P12931 whole entry): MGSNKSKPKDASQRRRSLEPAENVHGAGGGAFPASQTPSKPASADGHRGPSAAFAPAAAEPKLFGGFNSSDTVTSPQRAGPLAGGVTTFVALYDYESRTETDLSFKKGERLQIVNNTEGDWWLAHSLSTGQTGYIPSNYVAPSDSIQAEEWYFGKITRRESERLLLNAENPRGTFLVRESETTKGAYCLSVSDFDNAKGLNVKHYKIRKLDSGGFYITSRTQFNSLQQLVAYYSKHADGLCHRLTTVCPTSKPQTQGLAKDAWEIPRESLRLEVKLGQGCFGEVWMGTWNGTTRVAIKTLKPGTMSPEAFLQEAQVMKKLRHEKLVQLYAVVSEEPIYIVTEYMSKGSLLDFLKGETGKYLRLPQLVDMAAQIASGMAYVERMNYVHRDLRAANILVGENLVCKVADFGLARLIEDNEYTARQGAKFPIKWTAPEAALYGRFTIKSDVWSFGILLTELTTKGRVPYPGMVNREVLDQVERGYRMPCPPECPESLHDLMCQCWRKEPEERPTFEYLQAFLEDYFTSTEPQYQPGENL
Method: as §1, §2, §3, §4, §5

[16] = target: FGFR1 (Homo sapiens, UniProt P11362); test: SelectScreen kinase profiling, FGFR1; format: biochemical; details: mean ± SD of one measurement in duplicates
Method: as §1, §2, §3, §4, §5

[17] = target: ErbB4 (Homo sapiens, UniProt Q15303); test: SelectScreen kinase profiling, ErbB4; format: biochemical; details: mean ± SD of one measurement in duplicates
Method: as §1, §2, §3, §4, §5

[18] = target: YES1 (Homo sapiens, UniProt P07947); test: SelectScreen kinase profiling, YES1; format: biochemical; details: mean ± SD of one measurement in duplicates
Method: as §1, §2, §3, §4, §5

[19] = target: T1, EGFR-wt; test: SelectScreen kinase profiling, EGFR-wt; format: biochemical; details: mean ± SD of one measurement in duplicates
Method: as §1, §2, §3, §4, §5

[20] = male, RjOrl:SWISS (CD1), mouse, plasma, IP 20 mg kg-1
[21] = male, RjOrl:SWISS (CD1), mouse, plasma, IP 20 mg kg^–1
[22] = male, RjOrl:SWISS (CD1), mouse, plasma, IV 2 mg kg-1
[23] = male, RjOrl:SWISS (CD1), mouse, plasma, PO 20 mg kg-1

Chain of EGFR-L858R/T790M (P00533 25-1210 T790M/L858R): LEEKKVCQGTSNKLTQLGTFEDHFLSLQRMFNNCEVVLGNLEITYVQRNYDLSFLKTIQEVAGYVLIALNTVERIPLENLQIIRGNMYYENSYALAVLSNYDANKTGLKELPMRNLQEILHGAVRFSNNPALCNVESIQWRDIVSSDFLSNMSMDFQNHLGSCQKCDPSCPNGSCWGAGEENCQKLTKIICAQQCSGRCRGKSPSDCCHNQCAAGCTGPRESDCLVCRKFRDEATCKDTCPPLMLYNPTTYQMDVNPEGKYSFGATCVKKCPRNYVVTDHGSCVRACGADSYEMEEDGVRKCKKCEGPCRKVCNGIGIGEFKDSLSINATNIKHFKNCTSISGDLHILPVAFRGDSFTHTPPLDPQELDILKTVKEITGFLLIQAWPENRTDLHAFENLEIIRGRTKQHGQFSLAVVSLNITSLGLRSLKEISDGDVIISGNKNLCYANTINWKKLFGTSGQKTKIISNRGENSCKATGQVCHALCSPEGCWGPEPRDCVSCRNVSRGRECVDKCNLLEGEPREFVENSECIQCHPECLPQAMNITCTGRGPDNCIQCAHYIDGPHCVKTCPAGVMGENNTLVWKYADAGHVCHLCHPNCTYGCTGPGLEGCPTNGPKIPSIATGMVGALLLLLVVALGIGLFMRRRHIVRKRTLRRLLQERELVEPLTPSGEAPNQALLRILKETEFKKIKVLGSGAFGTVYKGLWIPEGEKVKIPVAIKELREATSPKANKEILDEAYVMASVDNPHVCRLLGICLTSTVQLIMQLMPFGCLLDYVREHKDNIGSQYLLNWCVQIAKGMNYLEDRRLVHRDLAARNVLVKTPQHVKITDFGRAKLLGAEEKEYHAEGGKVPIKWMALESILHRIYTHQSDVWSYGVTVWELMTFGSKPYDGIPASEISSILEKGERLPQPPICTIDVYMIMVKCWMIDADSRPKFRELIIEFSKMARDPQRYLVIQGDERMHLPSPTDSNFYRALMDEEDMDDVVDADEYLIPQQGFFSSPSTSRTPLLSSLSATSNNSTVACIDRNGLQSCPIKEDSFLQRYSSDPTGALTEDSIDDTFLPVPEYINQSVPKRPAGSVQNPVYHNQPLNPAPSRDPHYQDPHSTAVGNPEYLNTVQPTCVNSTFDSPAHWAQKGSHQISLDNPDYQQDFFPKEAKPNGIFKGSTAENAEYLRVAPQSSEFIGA
T1 sequence (P00533 25-1210): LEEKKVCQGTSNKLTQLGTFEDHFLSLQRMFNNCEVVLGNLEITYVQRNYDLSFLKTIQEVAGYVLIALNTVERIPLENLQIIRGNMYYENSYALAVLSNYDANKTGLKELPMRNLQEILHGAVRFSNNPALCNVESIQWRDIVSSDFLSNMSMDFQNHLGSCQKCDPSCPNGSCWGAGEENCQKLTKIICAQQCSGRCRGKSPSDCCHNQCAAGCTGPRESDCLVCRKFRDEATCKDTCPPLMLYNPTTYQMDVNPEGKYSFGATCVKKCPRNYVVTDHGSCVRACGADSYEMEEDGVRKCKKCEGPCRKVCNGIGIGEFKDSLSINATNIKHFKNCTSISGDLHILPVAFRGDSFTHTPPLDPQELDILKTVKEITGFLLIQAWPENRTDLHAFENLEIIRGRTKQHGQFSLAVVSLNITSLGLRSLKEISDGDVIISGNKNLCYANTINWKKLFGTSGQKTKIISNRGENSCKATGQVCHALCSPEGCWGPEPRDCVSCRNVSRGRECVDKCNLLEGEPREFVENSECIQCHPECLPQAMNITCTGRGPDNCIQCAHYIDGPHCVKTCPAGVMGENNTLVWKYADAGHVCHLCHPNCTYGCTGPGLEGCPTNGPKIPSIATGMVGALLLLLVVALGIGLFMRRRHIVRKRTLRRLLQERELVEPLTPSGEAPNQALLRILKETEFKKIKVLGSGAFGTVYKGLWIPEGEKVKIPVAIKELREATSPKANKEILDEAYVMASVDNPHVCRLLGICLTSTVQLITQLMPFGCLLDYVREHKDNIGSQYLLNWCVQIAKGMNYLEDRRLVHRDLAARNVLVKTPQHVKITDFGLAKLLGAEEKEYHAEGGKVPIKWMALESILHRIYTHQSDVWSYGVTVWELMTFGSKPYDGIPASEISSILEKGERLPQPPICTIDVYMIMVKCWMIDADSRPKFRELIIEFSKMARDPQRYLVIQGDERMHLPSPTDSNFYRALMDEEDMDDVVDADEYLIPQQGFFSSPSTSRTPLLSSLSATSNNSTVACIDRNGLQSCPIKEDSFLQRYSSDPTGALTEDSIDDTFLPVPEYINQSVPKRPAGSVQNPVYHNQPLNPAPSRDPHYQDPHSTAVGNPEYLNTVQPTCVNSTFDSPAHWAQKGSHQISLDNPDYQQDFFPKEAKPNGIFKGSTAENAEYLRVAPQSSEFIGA

C=CC(=O)Nc1cccc(-c2c(-c3ccc(N4CCN(C)CC4)cc3)[nH]c3ncnc(OCC(C)C)c23)c1 [Compound 19h]
Ki [1]: 0.4 ± 0.1 nM
kinact [1]: 0.000833 s⁻¹
kinact/KI [1]: 1.98e+06 ± 220000 M⁻¹ s⁻¹
Ki [2]: 0.4 ± 0.1 nM
kinact [2]: 0.00283 s⁻¹
kinact/KI [2]: 8.08e+06 ± 770000 M⁻¹ s⁻¹
fraction unbound at 6 h, 5 µM [3]: 0.003
F0-t ([4]; IP 20 mg kg-1): 258%
t1/2 ([4]; IP 20 mg kg-1): 1.2 h
Cmax, free ([4]; IP 20 mg kg^–1): 0.012 µM
F0-t ([4]; PO 20 mg kg-1): 9%
time blood plasma concentration maintained above in vitro EC50 in H1975 cells ([4]; after both IP and PO): more than two hours
AUC(0-t) [4, 20]: 2870 ng·h/mL
Cmax [4, 20]: 1770 ng/mL
AUC [4, 21]: 8.6 ng·h/mL
Cmax [4, 21]: 3.5 µM
AUC(0-t) [4, 22]: 111 ng·h/mL
C0 [4, 22]: 258 ng/mL
clearance [4, 22]: 250 mL/min/kg
Vd ([4]; male, RjOrl:SWISS (CD1), mouse, plasma, IV 2 mg kg-1, read-out: Vss): 16 L/kg
AUC(0-t) [4, 23]: 101 ng·h/mL
Cmax [4, 23]: 56 ng/mL
half-life ([4]; male, RjOrl:SWISS (CD1), mouse, plasma, ip, 20 mg/kg, IP 20 mg kg-1): 1.21 h
half-life ([4]; male, RjOrl:SWISS (CD1), mouse, plasma, iv, 2 mg/kg, IV 2 mg kg-1): 0.89 h
microsomal CLint at 3 µM [5]: 6.7 µL/min/mg

C=CC(=O)Nc1cccc(-c2c(-c3ccc(CN4CCN(C)CC4)cc3)[nH]c3ncnc(OC)c23)c1 [Compound 17a]
inhibition at 1 µM [6]: 91 ± 2%
inhibition at 1 µM [7]: 89%
inhibition at 1 µM [8]: 89 ± 1%
inhibition at 1 µM [9]: 95 ± 1%
inhibition at 1 µM [10]: 76 ± 1%
inhibition at 1 µM [11]: 72 ± 3%
inhibition at 1 µM [12]: 96%
inhibition at 1 µM [13]: 92%
inhibition at 1 µM [14]: 96 ± 2%
inhibition at 1 µM [15]: 81 ± 1%
inhibition at 1 µM [16]: 72 ± 4%
inhibition at 1 µM [17]: 100 ± 1%
inhibition at 1 µM [18]: 93 ± 1%
inhibition at 1 µM [19]: 97 ± 2%
